“And” between values parts separate entries of the source, which are not always exact repeats. Equal values may be shown once. Toxic doses and inconclusive results are not listed.
System: BDF1 mice, B16 melanoma ip, median survival T/C
Assay: NCI In Vivo Anticancer Drug Screen. Data for tumor model B16 Melanoma (intraperitoneal) in B6D2F1 (BDF1) mice
Conditions: endpoint: median survival time, higher = longer survival
Summary of the method: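 Transplantable tumor model; survival or tumor size measured; reported as T/C, treated over vehicle control.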

[1] = dose: 100.0 mg/kg/injection, schedule: Q04DX003 (ip), vehicle: Klucel (hydroxypropylcellulose) (HPC)
[2] = dose: 200.0 mg/kg/injection, schedule: Q04DX003 (ip), vehicle: Klucel (hydroxypropylcellulose) (HPC)

## CC1=Nc2ccc([N+](=O)[O-])cc2N=C(C)C1
dose: 37.5 mg/kg/injection, schedule: Q01DX009 (ip), vehicle: saline
  T/C: 97 % of control
dose: 75.0 mg/kg/injection, schedule: Q01DX009 (ip), vehicle: saline
  T/C: 101 % of control
dose: 150.0 mg/kg/injection, schedule: Q01DX009 (ip), vehicle: saline
  T/C: 89 % of control

## O=S(=O)(/N=C1C=C/C(=N/S(=O)(=O)c2ccccc2)C2C3C=CC(C3)C/12)c1ccccc1 (stereo not drawn)
[1]
  T/C: 92 % of control
[2]
  T/C: 86 % of control

## CCOC(=O)Nc1ccccc1
dose: 100.0 mg/kg/injection, schedule: Q04DX003 (ip), vehicle: gum acacia
  T/C: 95 % of control
dose: 200.0 mg/kg/injection, schedule: Q04DX003 (ip), vehicle: gum acacia
  T/C: 102 % of control

## O=C1C(=O)c2ccccc2C(O)=C1CC=C(Cl)Cl
dose: 6.2 mg/kg/injection, schedule: Q01DX009 (ip), vehicle: water
  T/C: 93 % of control
dose: 12.5 mg/kg/injection, schedule: Q01DX009 (ip), vehicle: saline
  T/C: 100 % of control
dose: 12.5 mg/kg/injection, schedule: Q01DX009 (ip), vehicle: water
  T/C: 93 % of control
dose: 25.0 mg/kg/injection, schedule: Q01DX009 (ip), vehicle: saline
  T/C: 102 % of control
dose: 25.0 mg/kg/injection, schedule: Q01DX009 (ip), vehicle: water
  T/C: 100 % of control
dose: 25.0 mg/kg/injection, schedule: Q01DX009 (oral), vehicle: water
  T/C: 103 % of control and 106 % of control
dose: 50.0 mg/kg/injection, schedule: Q01DX009 (ip), vehicle: saline
  T/C: 100 % of control
dose: 50.0 mg/kg/injection, schedule: Q01DX009 (ip), vehicle: water
  T/C: 100 % of control
dose: 50.0 mg/kg/injection, schedule: Q01DX009 (oral), vehicle: saline
  T/C: 105 % of control
dose: 50.0 mg/kg/injection, schedule: Q01DX009 (oral), vehicle: water
  T/C: 106 % of control
dose: 75.0 mg/kg/injection, schedule: Q01DX009 (oral), vehicle: water
  T/C: 110 % of control
dose: 100.0 mg/kg/injection, schedule: Q01DX009 (oral), vehicle: saline
  T/C: 116 % of control
dose: 100.0 mg/kg/injection, schedule: Q01DX009 (oral), vehicle: water
  T/C: 106 % of control and 113 % of control
dose: 200.0 mg/kg/injection, schedule: Q01DX009 (oral), vehicle: water
  T/C: 106 % of control

## C[C@]12CC[C@@H]3c4ccc(O)cc4CC[C@H]3[C@@H]1C[C@@H](O)[C@@H]2O
dose: 50.0 mg/kg/injection, schedule: Q01DX009 (ip), vehicle: Klucel (hydroxypropylcellulose) (HPC)
  T/C: 102 % of control
dose: 100.0 mg/kg/injection, schedule: Q01DX009 (ip), vehicle: Klucel (hydroxypropylcellulose) (HPC)
  T/C: 100 % of control
dose: 200.0 mg/kg/injection, schedule: Q01DX009 (ip), vehicle: Klucel (hydroxypropylcellulose) (HPC)
  T/C: 90 % of control

## CCOC(=O)c1cnc(SC)nc1Sc1ccc(Cl)cc1
[1]
  T/C: 100 % of control
[2]
  T/C: 99 % of control
dose: 400.0 mg/kg/injection, schedule: Q04DX003 (ip), vehicle: Klucel (hydroxypropylcellulose) (HPC)
  T/C: 89 % of control

## COc1cccc(C)c1[N+](=O)[O-]
dose: 75.0 mg/kg/injection, schedule: Q04DX003 (ip), vehicle: Klucel (hydroxypropylcellulose) (HPC)
  T/C: 92 % of control
dose: 150.0 mg/kg/injection, schedule: Q04DX003 (ip), vehicle: Klucel (hydroxypropylcellulose) (HPC)
  T/C: 109 % of control
dose: 300.0 mg/kg/injection, schedule: Q04DX003 (ip), vehicle: Klucel (hydroxypropylcellulose) (HPC)
  T/C: 90 % of control

## COc1cccc2c1C(=O)c1c(O)c3c(c(O)c1C2=O)C[C@@](O)(/C(C)=N/NC(=O)c1cccc([N+](=O)[O-])c1)C[C@@H]3OC1CC(N)C(O)C(C)O1 (stereo partly drawn)
dose: 2.0 mg/kg/injection, schedule: Q01DX001 (ip), vehicle: water
  T/C: 153 % of control
dose: 4.0 mg/kg/injection, schedule: Q01DX001 (ip), vehicle: water
  T/C: 158 % of control and 164 % of control
dose: 8.0 mg/kg/injection, schedule: Q01DX001 (ip), vehicle: water
  T/C: 168 % of control and 178 % of control
dose: 16.0 mg/kg/injection, schedule: Q01DX001 (ip), vehicle: water
  T/C: 164 % of control and 184 % of control
dose: 32.0 mg/kg/injection, schedule: Q01DX001 (ip), vehicle: water
  T/C: 95 % of control

## ClCC[Se](Cl)(Cl)c1ccccc1
dose: 0.78 mg/kg/injection, schedule: Q01DX009 (ip), vehicle: saline
  T/C: 96 % of control
dose: 1.56 mg/kg/injection, schedule: Q01DX009 (ip), vehicle: saline
  T/C: 105 % of control
dose: 3.12 mg/kg/injection, schedule: Q01DX009 (ip), vehicle: saline
  T/C: 113 % of control

Source: PubChem BioAssay AID192 (DTP/NCI, 2004)
